# Source: paper PMC4680857, “Rat and human STINGs profile similarly towards anticancer/antiviral compounds” (Scientific Reports, 2015)
# Changes are numbered by the printed parent chain. Where two headings read alike, the source gives them in different places.
# Legend:
# [1] = biological target: T1, rSTING CTD (residues 155–341) (Rattus norvegicus, UniProt F1M391); test: ITC binding to rSTING-CTD
# T1 construct: rSTING (residues 155–341); His tag (TEV protease-cleavable) (N); made in house; host or cells: Escherichia coli BL21 (DE3)
# T1 sequence (F1M391 155-341): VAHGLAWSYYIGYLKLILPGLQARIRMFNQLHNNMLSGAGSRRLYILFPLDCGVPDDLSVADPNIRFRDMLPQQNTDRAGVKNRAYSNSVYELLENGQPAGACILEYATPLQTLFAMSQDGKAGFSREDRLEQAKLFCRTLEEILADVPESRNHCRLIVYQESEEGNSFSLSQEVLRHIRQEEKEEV
# Procedure: (§1) The plasimids of pET28a-rSTING^CTD, hSTING^CTD, mSTING^CTD and their variants were transformed into Escherichia coli BL21 (DE3) cells for overexpression. Cells were induced at 18 °C with 0.5 mM isopropyl β-d-1-thiogalactopyranoside for 20 hours, then collected and resuspended in buffer A (20 mM Tris-HCl, pH 8.0, 500 mM NaCl). Cells were subjected to ultrasonic lysis and clarified by centrifugation at 21,500 rpm for 90 minutes. Supernatants were loaded onto a HiTrap HP column (GE Healthcare, USA) equilibrated with buffer A. The contaminants were washed with buffer A containing 100 mM imidazole. The target proteins were eluted with buffer A containing 500 mM imidazole. Eluates were further purified by ion-exchange chromatography (HiTrap Q, GE Healthcare) and eluted with a linear sodium chloride gradient. Further purification steps were conducted through gel filtration (Superdex-200; GE Healthcare) equilibrated with 20 mM Tris–HCl, pH 8.0, 200 mM NaCl.
# (§2) ITC measurements were performed with an iTC200 instrument (GE Healthcare) at 25 °C. […] A typical titration experiment involved 19 injections of ligand (2 mM) solution into the ITC cell containing protein (0.2 mM). The data were fitted to titration curves with Origin v7.0 (MicroCal).
# [2] = system: hSTING haplotypes with residue 230 mutations; test: IFN-β luciferase assay, residue 230 mutations in hSTING haplotypes; type: cell-based, human; details: 2′3′-cGAMP stimulation (Fig. 5c)
# rSTING T230I = biological target: T2, rSTING T230I (Rattus norvegicus, UniProt F1M391, T230I); test: ITC binding to rSTING T230I
# T2 construct: rSTING (residues 155–341); His tag (TEV protease-cleavable) (N); made in house; host or cells: Escherichia coli BL21 (DE3)
# T2 sequence (F1M391 155-341 T230I): T1 sequence (F1M391 155-341) with T76I
# Procedure: as §1, §2
# [3] = biological target: T3, hSTING CTD (residues 155–341) (Homo sapiens, UniProt Q86WV6, G230A/H232R); test: ITC binding to hSTING-CTD
# T3 construct: hSTING (residues 155–341); His tag (TEV protease-cleavable) (N); made in house; host or cells: Escherichia coli BL21 (DE3)
# T3 sequence (Q86WV6 155-341 G230A/H232R): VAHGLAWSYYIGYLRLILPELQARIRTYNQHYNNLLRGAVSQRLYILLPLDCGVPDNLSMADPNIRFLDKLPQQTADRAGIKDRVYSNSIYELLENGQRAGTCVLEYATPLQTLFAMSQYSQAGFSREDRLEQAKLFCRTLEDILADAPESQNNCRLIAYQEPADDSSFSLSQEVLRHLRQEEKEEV
# Procedure: as §1, §2
# rSTING T230L = biological target: T4, rSTING T230L (Rattus norvegicus, UniProt F1M391, T230L); test: ITC binding to rSTING T230L
# T4 construct: rSTING (residues 155–341); His tag (TEV protease-cleavable) (N); made in house; host or cells: Escherichia coli BL21 (DE3)
# T4 sequence (F1M391 155-341 T230L): T1 sequence (F1M391 155-341) with T76L
# Source text: The C-terminal domain of rSTING (residues 155–341), hSTING (residues 155–341), mSTING (residues 154–340) for ITC measurements, hereafter named rSTING^CTD, hSTING^CTD, mSTING^CTD, were constructed by cloning into pET28a vector between Nde I and Xho I restriction sites, which contains N-terminal TEV protease-cleavable His tag. All point mutations were generated by PCR-based site-directed mutagenesis method with KOD FX as the polymerase.
# The plasimids of pET28a-rSTING^CTD, hSTING^CTD, mSTING^CTD and their variants were transformed into Escherichia coli BL21 (DE3) cells for overexpression. Cells were induced at 18 °C with 0.5 mM isopropyl β-d-1-thiogalactopyranoside for 20 hours, then collected and resuspended in buffer A (20 mM Tris-HCl, pH 8.0, 500 mM NaCl). Cells were subjected to ultrasonic lysis and clarified by centrifugation at 21,500 rpm for 90 minutes. Supernatants were loaded onto a HiTrap HP column (GE Healthcare, USA) equilibrated with buffer A. The contaminants were washed with buffer A containing 100 mM imidazole. The target proteins were eluted with buffer A containing 500 mM imidazole. Eluates were further purified by ion-exchange chromatography (HiTrap Q, GE Healthcare) and eluted with a linear sodium chloride gradient. Further purification steps were conducted through gel filtration (Superdex-200; GE Healthcare) equilibrated with 20 mM Tris–HCl, pH 8.0, 200 mM NaCl. […]
# hSTING G230I variant = system: hSTING G230I variant; set-up: method as in Gao et al. [35]; details: ref Gao et al. [35]; cited from earlier work
# [4] = system: hSTING with A230 replaced by Ile or Leu; test: ITC binding to hSTING mutants (Fig. S6); set-up: species or system human
# Procedure: as §2
Structure (SMILES),Kd [1],binding affinity (in words) [1],"cGAMP-induced IFN-β production, differences between residue 230 mutations [2]","Kd ([1]; ITC, 25 °C, WT rSTING-CTD (T230))","binding affinity (in words) ([1]; ITC, rSTING CTD)",ΔH (rSTING T230I; rSTING T230I),ΔS (rSTING T230I; rSTING T230I),binding affinity greater than that for WT rSTING (rSTING T230I; rSTING T230I vs WT rSTING),binding affinity (in words) [3],"ΔH ([1]; ITC, rSTING T230(WT))","ΔS ([1]; ITC, rSTING T230(WT))",ΔH (rSTING T230L),ΔS (rSTING T230L),response of STING variant to compound (hSTING G230I variant),binding by ITC (in words) [4]
"Nc1nc2c(ncn2[C@@H]2O[C@@H]3COP(=O)(O)O[C@H]4[C@@H](O)[C@H](n5cnc6c(N)ncnc65)O[C@@H]4COP(=O)(O)O[C@@H]2[C@@H]3O)c(=O)[nH]1 [2′3′-cGAMP, cyclic GMP-AMP with 2′5′ and 3′5′ phosphodiester linkage]",120 ± 30 nM,high binding affinities,no differences,,,,,,,,,,,,
Nc1nc2c(ncn2[C@@H]2O[C@@H]3COP(=O)(O)O[C@H]4[C@@H](O)[C@H](n5cnc6c(N)ncnc65)O[C@@H]4COP(=O)(O)O[C@H]3[C@H]2O)c(=O)[nH]1 [3′3′-cGAMP],,,,550 ± 110 nM,high binding affinities,,,,,,,,,,
"Cc1ccc2c(=O)c3cccc(CC(=O)O)c3oc2c1C [DMXAA, 5,6-Dimethylxanthenone 4-acetic acid]",,,,,none or only weak affinity,-3.86 ± 0.10 kcal/mol,16.0 cal/mol/deg,50 fold,none or only weak affinity,-2.77 ± 0.09 kcal/mol,11.7 cal/mol/deg,-2.31 ± 0.07 kcal/mol,16.6 cal/mol/deg,can respond,detectable binding
